The record followed here is the CheMixHub viscosity set.

Data set [1] in a line: xn = mol fraction of the nth substance listed.

“And” between values parts separate entries of the source, which are not always exact repeats. Equal entries are not always repeated. ± gives the uncertainty stated by the source.

In turn, `CCNC(C)=O` displayed a viscosity (298.16 K, 101 kPa) of 5.89 ± 0.05 mPa·s.
Consider `CCOC(=O)[C@@H](O)[C@H](O)C(=O)OCC`, for which the viscosity reads like this: (293.15 K, 101 kPa) 221.3 ± 4.6 mPa·s; (298.15 K, 101 kPa) 137.7 ± 2 mPa·s and 137.7 ± 2.1 mPa·s; (303.15 K, 101 kPa) 90.07 ± 0.93 mPa·s and 90.07 ± 1 mPa·s; (308.15 K, 101 kPa) 61.58 ± 0.47 mPa·s and 61.58 ± 0.56 mPa·s; (313.15 K, 101 kPa) 43.68 ± 0.34 mPa·s and 43.68 ± 0.4 mPa·s; (318.15 K, 101 kPa) 32.1 ± 0.25 mPa·s and 32.1 ± 0.29 mPa·s. Also, under “323.15 K, 101 kPa”, the viscosity is 24.37 ± 0.19 mPa·s and 24.37 ± 0.22 mPa·s.
`CCOC(=O)c1ccccc1`: the viscosity (293.15 K, 101.33 kPa) is 2.013 ± 0.052 mPa·s and 2.21 ± 0.02 mPa·s; the viscosity (298.15 K, 101.33 kPa) was 1.954 ± 0.025 mPa·s and 1.936 ± 0.023 mPa·s; the viscosity (303.15 K, 101.33 kPa) is 1.597 ± 0.041 mPa·s and 1.77 ± 0.022 mPa·s and 1.811 ± 0.016 mPa·s; the viscosity (308 K, 101.3 kPa) was 1.593 ± 0.16 mPa·s; the viscosity (308.15 K, 101.33 kPa) was 1.61 ± 0.021 mPa·s and 1.591 ± 0.019 mPa·s; the viscosity (313 K, 101.3 kPa) came out at 1.446 ± 0.14 mPa·s. For the same compound, the viscosity (313.15 K, 101 kPa) was 1.446 ± 0.035 mPa·s and 1.463 ± 0.031 mPa·s and 1.461 ± 0.022 mPa·s; the viscosity (313.15 K, 101.33 kPa) is 1.284 ± 0.033 mPa·s and 1.453 ± 0.018 mPa·s; the viscosity (318 K, 101.3 kPa) worked out at 1.339 ± 0.13 mPa·s; the viscosity (318.15 K, 101 kPa) is 1.339 ± 0.033 mPa·s and 1.35 ± 0.042 mPa·s; the viscosity (318.15 K, 101.33 kPa) is given as 1.332 ± 0.016 mPa·s; the viscosity (323 K, 101.3 kPa) is given as 1.254 ± 0.13 mPa·s. Also, the viscosity turned out to be 1.254 ± 0.031 mPa·s (323.15 K, 101 kPa) and 1.058 ± 0.027 mPa·s (323.15 K, 101.33 kPa).
Regarding `CCS(=O)CC`, the viscosity was 2.32 ± 0.05 mPa·s (298.15 K, 101 kPa); 2.1 ± 0.04 mPa·s (303.15 K, 101 kPa); 1.88 ± 0.04 mPa·s (308.15 K, 101 kPa); 1.74 ± 0.04 mPa·s (313.15 K, 101 kPa); 1.59 ± 0.03 mPa·s (318.15 K, 101 kPa); 1.31 ± 0.03 mPa·s (323.15 K, 101 kPa).
Consider `CCn1cc[n+](C)c1.N#C[S-]`, for which the viscosity is 26.31 ± 0.54 mPa·s (293.15 K, 101 kPa); 23.06 ± 1.1 mPa·s (298.15 K, 100 kPa); 19.68 ± 0.93 mPa·s (303.15 K, 100 kPa); 19.03 ± 0.49 mPa·s (303.15 K, 101 kPa); 16.97 ± 0.8 mPa·s (308.15 K, 100 kPa); 14.54 ± 0.69 mPa·s (2×) and 16.97 ± 0.8 mPa·s (313.15 K, 100 kPa). In addition, the viscosity (313.15 K, 101 kPa) worked out at 14.3 ± 0.46 mPa·s; the viscosity (318.15 K, 100 kPa) is 12.98 ± 0.61 mPa·s (2×) and 14.54 ± 0.69 mPa·s; the viscosity (323.15 K, 100 kPa) is on record as 11.49 ± 0.54 mPa·s; the viscosity (323.15 K, 101 kPa) was determined as 11.1 ± 0.45 mPa·s.
Compound `CNS(C)(=O)=O` displayed a viscosity (303.15 K, 101.33 kPa) of 8.242 ± 0.21 mPa·s.
For the setting “303.15 K, 101 kPa”, `COC(=O)c1ccccc1O` came in with a viscosity of 2.44 ± 0.028 mPa·s.
Consider `Cc1cccc([N+](=O)[O-])c1`, for which the viscosity (308.15 K, 101.33 kPa) is 1.692 ± 0.01 mPa·s.
With `Cc1ccccc1[N+](=O)[O-]`, the viscosity by setting is: (298.15 K, 101 kPa) 2.1 ± 0.021 mPa·s; (298.15 K, 101.33 kPa) 2.089 ± 0.021 mPa·s; (308.15 K, 101.33 kPa) 1.727 ± 0.011 mPa·s; (323.15 K, 101.33 kPa) 1.348 ± 0.013 mPa·s.
Turning to `N#CCc1ccccc1`, under “298.15 K, 101 kPa”, the viscosity came out at 1.868 ± 0.045 mPa·s.
Regarding `OC1CCCCCCC1`, the viscosity by setting is: (293.15 K, 100 kPa) 210 ± 10 mPa·s; (298.15 K, 100 kPa) 143 ± 5.6 mPa·s; (303.15 K, 100 kPa) 102.5 ± 3.8 mPa·s; (308.15 K, 100 kPa) 72 ± 3.2 mPa·s; (313.15 K, 100 kPa) 55 ± 3.1 mPa·s; (318.15 K, 100 kPa) 40 ± 3.1 mPa·s.
Regarding `OCC(F)(F)C(F)F`, the viscosity (298.15 K, 100 kPa) is 4.861 ± 0.1 mPa·s and the viscosity (323.15 K, 100 kPa) was 2.156 ± 0.046 mPa·s.
The compound `c1cscn1` yielded a viscosity (298.15 K, 101 kPa) of 1.008 ± 0.027 mPa·s.
`C1=CCCCC1` + c1ccccc1: the viscosity in data set [1] (303.15 K, 101 kPa, x1 = 0.1198) came to 0.57 ± 0.007 mPa·s; in data set [1] (303.15 K, 101 kPa, x1 = 0.2756), 0.568 ± 0.007 mPa·s; in data set [1] (303.15 K, 101 kPa, x1 = 0.3442), 0.569 ± 0.007 mPa·s; in data set [1] (303.15 K, 101 kPa, x1 = 0.4509) it was 0.566 ± 0.007 mPa·s; in data set [1] (303.15 K, 101 kPa, x1 = 0.4904), 0.566 ± 0.007 mPa·s; in data set [1] (303.15 K, 101 kPa, x1 = 0.6697), 0.568 ± 0.007 mPa·s. For the same compound, the viscosity in data set [1] (303.15 K, 101 kPa, x1 = 0.7561) is given as 0.568 ± 0.007 mPa·s; in data set [1] (303.15 K, 101 kPa, x1 = 0.8665), 0.571 ± 0.007 mPa·s.
For `CC1CCCCC1` + c1ccccc1, the viscosity came out at 0.5138 ± 0.0038 mPa·s in data set [1] (303.15 K, 101 kPa, x1 = 0.203); 0.5057 ± 0.0038 mPa·s in data set [1] (303.15 K, 101 kPa, x1 = 0.2997); 0.5059 ± 0.0038 mPa·s in data set [1] (303.15 K, 101 kPa, x1 = 0.4008); 0.5117 ± 0.0038 mPa·s in data set [1] (303.15 K, 101 kPa, x1 = 0.5041); 0.5205 ± 0.0039 mPa·s in data set [1] (303.15 K, 101 kPa, x1 = 0.604); 0.5611 ± 0.004 mPa·s in data set [1] (303.15 K, 101 kPa, x1 = 0.7992). For the same compound, the viscosity in data set [1] (303.15 K, 101 kPa, x1 = 0.9027) is on record as 0.5961 ± 0.0042 mPa·s.
On to `Cc1cccc([N+](=O)[O-])c1` + c1ccccc1, for which the viscosity in data set [1] (303.15 K, 101.33 kPa, x1 = 0.2) is 0.7 ± 0.015 mPa·s; in data set [1] (303.15 K, 101.33 kPa, x1 = 0.395) it was 0.85 ± 0.014 mPa·s; in data set [1] (303.15 K, 101.33 kPa, x1 = 0.599), 1.09 ± 0.015 mPa·s; in data set [1] (303.15 K, 101.33 kPa, x1 = 0.804) it was 1.44 ± 0.016 mPa·s.
In the case of `CNS(C)(=O)=O` + c1ccncc1, the viscosity in data set [1] (303.15 K, 101.33 kPa, x1 = 0.1002) stood at 1.039 ± 0.027 mPa·s; in data set [1] (303.15 K, 101.33 kPa, x1 = 0.1975), 1.31 ± 0.034 mPa·s; in data set [1] (303.15 K, 101.33 kPa, x1 = 0.2809), 1.61 ± 0.042 mPa·s; in data set [1] (303.15 K, 101.33 kPa, x1 = 0.403) it was 2.214 ± 0.058 mPa·s; in data set [1] (303.15 K, 101.33 kPa, x1 = 0.5037) it was 2.832 ± 0.074 mPa·s; in data set [1] (303.15 K, 101.33 kPa, x1 = 0.5728), 3.346 ± 0.088 mPa·s. Besides, the viscosity is on record as 4.52 ± 0.12 mPa·s in data set [1] (303.15 K, 101.33 kPa, x1 = 0.7024); 5.676 ± 0.15 mPa·s in data set [1] (303.15 K, 101.33 kPa, x1 = 0.8); 6.925 ± 0.18 mPa·s in data set [1] (303.15 K, 101.33 kPa, x1 = 0.894).
For `O=C(Nc1ccccc1)c1ccccc1` + c1ccncc1, the viscosity in data set [1] (298.15 K, 101 kPa, x1 = 0.0224) worked out at 1.027 ± 0.21 mPa·s; in data set [1] (298.15 K, 101 kPa, x1 = 0.0382), 1.121 ± 0.22 mPa·s; in data set [1] (298.15 K, 101 kPa, x1 = 0.05536), 1.252 ± 0.25 mPa·s.
With `CCCC[n+]1ccn(C)c1.N#C[S-]` + c1ccsc1, the viscosity in data set [1] (298.15 K, 100 kPa, x1 = 0.754) amounted to 31.95 ± 1.7 mPa·s; in data set [1] (308.15 K, 100 kPa, x1 = 0.857), 28.75 ± 1.5 mPa·s.

One may read the viscosity as the internal friction of a fluid under shear. High values mean sluggish flow, low ones easy flow.
